# Data from ChEMBL document CHEMBL6087474, “Discovery of an Efficacious RET PROTAC Degrader with Enhanced Antiproliferative Activity against Resistant Cancer Cells Harboring RET Solvent-Front Mutations” (J Med Chem, 2025).
# Activity calls are given as the source filed them. The rule behind the calls is not given here.
# Experiments:
# [1] = Effect on RET protein level in mouse BaF3 cells stably expressing KIF5B-RET-V804M mutant assessed as fold change at 100 nM measured after 6 hrs by Western blot analysis (reference value: 1); type: functional
# BaF3 [2] = assay: Antitumor activity against mouse BaF3 cells stably expressing KIF5B-RET-G810C mutant implanted in male BALB/c mouse model assessed as reduction in tumor weight at 30 mg/kg, ip administered daily for 14 days relative to control; type: functional; set-up: scale not given: the % may be the effect or the level left; details: time 14 day
# [3] = Induction of apoptosis in mouse BaF3 cells stably expressing wildtype KIF5B-RET fusion protein assessed as early apoptotic cells at 100 nM measured after 48 hrs by Annexin V-FITC/7-AAD staining based flow cytometric analysis (reference value: 9.92 %); type: functional
# BaF3 [4] = assay: PROTAC activity at CRBN/IKZF1 in mouse BaF3 cells overexpressing KIF5B-RET assessed as induction of […] at 10 to 1000 nM incubated for 6 hrs by Western blot analysis; type: cell-based; details: dose 10-1000 nM
# BaF3 [5] = assay: Inhibition of Shc (unknown origin) phosphorylation in mouse BaF3 cells stably expression KIF5B-RET G810R mutant at 333.3 to 3000 nM measured after 6 hrs by Western blot analysis; type: cell-based; details: Homo sapiens, dose 333.3-3000 nM
# [6] = Induction of apoptosis in mouse BaF3 cells stably expressing wildtype KIF5B-RET fusion protein assessed as viable cells at 100 nM measured after 48 hrs by Annexin V-FITC/7-AAD staining based flow cytometric analysis (reference value: 86.65 %); type: functional; details: read-out: Activity
# [7] = PROTAC activity at CRBN/KIF5B-RET-G810C mutant (unknown origin) expressed in mouse BaF3 cells assessed as induction of RET degradation measured after 6 hrs by Western blot analysis; type: cell-based; details: BaF3, 6 h
# BaF3 [8] = assay: PROTAC activity at CRBN/KIF5B-RET (unknown origin) expressed in mouse BaF3 cells assessed as induction of RET degradation by measuring maximal efficacy measured after 6 hrs by Western blot analysis relative to control; type: cell-based; details: Homo sapiens
# [9] = Effect on RET protein level in mouse BaF3 cells stably expressing KIF5B-RET-G810C mutant assessed as fold change at 11.1 nM measured after 6 hrs by Western blot analysis (reference value: 1); type: functional
# [10] = Effect on Shc protein level in mouse BaF3 cells stably expressing KIF5B-RET-G810R mutant assessed as fold change at 100 nM measured after 6 hrs by Western blot analysis (reference value: 1); type: functional
# [11] = Induction of apoptosis in mouse BaF3 cells stably expressing wildtype KIF5B-RET fusion protein assessed as early apoptotic cells at 300 nM measured after 48 hrs by Annexin V-FITC/7-AAD staining based flow cytometric analysis (reference value: 9.92 %); type: functional
# [12] = Effect on Shc protein level in mouse BaF3 cells stably expressing KIF5B-RET-G810C mutant assessed as fold change at 33.3 nM measured after 6 hrs by Western blot analysis (reference value: 1); type: functional
# [13] = Bioavailability in male ICR mouse at 10 mg/kg, ip measured after 24 hrs by LC-MS/MS analysis; type: ADME, organism-based; details: in vivo
# [14] = Effect on Shc protein level in mouse BaF3 cells stably expressing wildtype KIF5B-RET assessed as fold change at 300 nM measured after 6 hrs by Western blot analysis; type: functional
# [15] = Effect on Shc protein level in mouse BaF3 cells stably expressing KIF5B-RET-G810R mutant assessed as fold change at 11.1 nM measured after 6 hrs by Western blot analysis (reference value: 1); type: functional
smiles,measurement,setting,value
COc1ccc(CN2C3CC2CN(c2ccc(-c4cc(-c5cnn(C6CCN(CCCCCC#Cc7cccc8c7CN(C7CCC(=O)NC7=O)C8=O)CC6)c5)cn5ncc(C#N)c45)cn2)C3)cn1 (stereo not given),fold change (FC),[1],0.1
same,Activity,BaF3 [2],34.4%
same,Activity,[3],33.58%
same,Activity,BaF3 [4],inactive
same,inhibition,BaF3 [5],Active
same,viability at 0.1 µM,[6],64.9%
same,DC50,[7],73.8 nM
same,Emax,BaF3 [8],83%
same,fold change (FC),[9],0.7
same,fold change (FC),[10],0.9
same,Activity,[11],48.33%
same,fold change (FC),[12],1
same,bioavailability,[13],17.3%
same,fold change (FC),[14],1
same,fold change (FC),[15],0.9
